Target: T1, recombinant human PAI-1 (Homo sapiens, UniProt P05121)
T1 construct: purchased Molecular Innovations, Inc
Experiment: Test Example 1: human PAI-1 inhibitory activity (tPA fluorogenic substrate, pH 7.5 Tris buffer)
Assay type: biochemical
Conditions: Tris buffer
Procedure: 50 mM Tris, 150 mM NaCl, 10 μg/ml BSA, 0.01% Tween80 (SIGMA-ALDRICH Corporation)

T1 sequence (P05121 24-402): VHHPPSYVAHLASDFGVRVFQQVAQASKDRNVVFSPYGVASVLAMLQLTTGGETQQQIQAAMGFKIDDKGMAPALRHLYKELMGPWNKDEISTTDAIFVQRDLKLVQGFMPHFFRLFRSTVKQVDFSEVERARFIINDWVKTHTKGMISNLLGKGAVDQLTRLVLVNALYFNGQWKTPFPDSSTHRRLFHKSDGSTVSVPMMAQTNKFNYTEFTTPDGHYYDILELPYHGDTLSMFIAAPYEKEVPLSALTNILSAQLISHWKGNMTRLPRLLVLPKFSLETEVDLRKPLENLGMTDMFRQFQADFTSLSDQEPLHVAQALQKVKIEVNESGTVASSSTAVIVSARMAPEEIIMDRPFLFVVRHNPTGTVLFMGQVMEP

SMILES | Inhibition Rate of PAI-1 Activity (%) (Compound Concentration 5 μM) | Inhibition Rate of PAI-1 Activity (%) (Compound Concentration 10 μM) | Inhibition Rate of PAI-1 Activity (%) (Compound Concentration 25 μM)
CCCOc1ccc(-c2ccc(OC(F)(F)F)cc2)cc1N(CCCc1ccccc1)C(=O)C(=O)O [Compound 234] | 59 | 83 | 96
CC(C)(C)c1ccc(CN(C(=O)C(=O)O)c2ccc(-c3ccc(F)cc3)cc2)cc1 [Compound 127] | 21 | 43 | 
CC(C)(C)c1ccc(-c2ccc(N(Cc3ccccc3OC(F)(F)F)C(=O)C(=O)O)cc2)cc1 [Compound 202] | 70 | 94 | 98
O=C(O)C(=O)N(Cc1ccc(O)cc1)c1ccc(-c2ccc(OC(F)(F)F)cc2)cc1 [Compound 181] | 10 | 11 | 31
CCCCc1ccc(COc2ccc(-c3ccc(C(C)(C)C)cc3)cc2CCC(=O)O)cc1 [Compound 71] | 51 | 80 | 93
O=C(O)C(=O)N(Cc1ccc(-c2ccccc2)cc1)c1ccc(-c2ccc(OC(F)(F)F)cc2)cc1 [Compound 161] | 27 | 62 | >99
CCCCc1ccc(-c2ccc(N(Cc3ccc(C(C)(C)C)cc3)C(=O)C(=O)O)cc2)cc1 [Compound 164] | 40 | 79 | 96
O=C(O)C(=O)N(Cc1ccccc1)c1c(Cl)cc(-c2ccc(OC(F)(F)F)cc2)cc1Cl [Compound 180] | 19 | 36 | 71
CCCOc1ccc(N(CCCCc2ccccc2)C(=O)C(=O)O)cc1-c1ccc(OC(F)(F)F)cc1 [Compound 240] | 62 | 91 | 95
CCCCOc1ccc(-c2ccc(OC(F)(F)F)cc2)cc1N(CCCc1ccccc1)C(=O)C(=O)O [Compound 235] | 66 | 89 | 93

More lines, now with the values ahead:

Inhibition Rate of PAI-1 Activity (%) (Compound Concentration 5 μM) | Inhibition Rate of PAI-1 Activity (%) (Compound Concentration 10 μM) | Inhibition Rate of PAI-1 Activity (%) (Compound Concentration 25 μM) | SMILES
59 | 92 | 91 | Cc1ccc(N(Cc2ccc(C(C)(C)C)cc2)C(=O)C(=O)O)cc1OCc1ccc(OC(F)(F)F)cc1 [Compound 625]
19 | 32 | 74 | O=C(O)CCc1cc(-c2ccccc2)ccc1OCc1ccc(OC(F)(F)F)cc1 [Compound 53]
49 | 83 | 96 | CC(C)(C)c1ccc(CN(C(=O)C(=O)O)c2ccc(OCc3ccc(OC(F)(F)F)cc3)cc2)cc1 [Compound 616]
56 | 85 | 89 | COc1ccc(-c2ccc(OC(F)(F)F)cc2)cc1N(Cc1ccc(C(C)(C)C)cc1)C(=O)C(=O)O [Compound 182]
25 | 56 | 94 | CC(C)(C)c1ccc(COc2ccc(-c3ccc(C(C)(C)C)cc3)cc2/C=C/C(=O)O)cc1 [Compound 39]
75 | 93 | 99 | CC(C)(C)c1ccc(Oc2cc(-c3ccc(OC(F)(F)F)cc3)ccc2OC(F)C(=O)O)cc1 (centres unmarked) [Compound 119]
38 | 72 | 93 | CC(C)(C)c1ccc(COc2ccc(-c3cccc(OC(F)(F)F)c3)cc2/C=C/C(=O)O)cc1 [Compound 63]

Reference: US8633245B2, “PAI-1 inhibitor” (Institute of Medicinal Molecular Design, Inc., priority 2008, dated 2014)
